Data reported in patent US9987369B2, “Vitamin functionalized gel-forming block copolymers for biomedical applications” (INTERNATIONAL BUSINESS MACHINES CORPORATION, priority 2016, dated 2018).

Key:
C. albicans = assay: killing efficiency of solutions; format: cell-based, Candida albicans; conditions: solution, fluconazole at 5.0 mg/L
Procedure: A stock solution of cationic polymer VE/PrBr(1:15) (5 mg) in sterile HPLC grade water (10 mL) was prepared having a final concentration of 500 mg/L (500 ppm). A second stock solution of fluconazole (1 mg) in sterile HPLC grade water (100 mL) was prepared having a final concentration of 10 mg/L (10 ppm). Three solutions were prepared: (1) cationic polymer alone at 1.0MIC=250 mg/L (250 ppm) against C. albicans, (2) A cationic polymer/fluconazole solution containing VE/PrBr(1:15) at 0.5MIC=125 mg/L (125 ppm) against C. albicans and fluconazole at 2.5 mg/L (2.5 ppm), and (3) fluconazole alone at 5.0 mg/L (5 ppm). Formulation (2) was obtained by combining […] each of the stock solutions of cationic polymer and fluconazole and diluting the resulting solution with 750 microliters of sterile HPLC grade water.

P. aeruginosa = assay: killing efficiency / minimum bactericidal concentration; format: cell-based, Pseudomonas aeruginosa; conditions: single agent
Procedure: Procedure for hydrogels: E. coli, P. aeruginosa, S. aureus and C. albicans were obtained from ATCC and reconstituted from its lyophilized form according to the manufacturer's protocol. Bacterial samples were cultured in Tryptic Soy Broth (TSB) solution at 37° C. under constant shaking of 300 rpm. C. albicans was culture in yeast medium at room temperature under constant shaking of 70 rpm. Prior to treatment, the bacterial sample was first inoculated and cultured to enter into log growth phase. To prepare the antimicrobial hydrogels, cationic polymer was first dissolved in filtered HPLC water in a bio-hood. […] For instance, cationic polymer VE/BnCl(1:30) or cationic polymer VE/PrBr(1:30) was dissolved by using sterile HPLC grade water to form a polymer solution at various concentrations. This solution was then used to dissolve […]1.25 to form a 4 wt. % hydrogel containing various concentrations of the cationic polymers. […] The concentration of bacterial solution was adjusted to give an initial optical density (O.D.) reading of approximately 0.07 at 600 nm wavelength on a microplate reader (TECAN, Switzerland), which corresponds to the concentration of McFarland 1 solution (3×10^8 CFU/mL). […] The plates were incubated for 24 hours at 37° C. and the number of colony-forming units (CFU) was counted. […]

Molecule | killing efficiency against C. albicans (C. albicans) [%] | MBC against P. aeruginosa (P. aeruginosa) [µg/mL]
OC(Cn1cncn1)(Cn1cncn1)c1ccc(F)cc1F [fluconazole, Fluconazole] | 93.53 | –
Doxycycline [DXY] | – | 20 to 30
